Read-outs that look alike come from different tables or passages of the source.
Experiments:
[1] = system: acute myelogenous leukemia cells MV4-11; assay: GI50 and LC50 by NCI method, MV4-11; assay type: cell-based; details: Homo sapiens, 48 hours, Cell Titer-Blue
Procedure: (§1) The median growth inhibitory concentration (GI50) and median lethal concentration (LC50) were determined by NCI method. Leukemia cell strains MV4-11, HL60, PL21, KASUMI-1, MONO-MAC-1 and NB-4 were cultured in an Iscove's Modified Dulbecco Medium (IMDM) containing 10% fetal bovine serum, were inoculated into a 96-well cell culture plate at a density of 10,000 cells/100 μL and cultured overnight. 6 wells were selected as Tz wells, 0.125 mg/mL Cell Titer-Blue dye was added, and the cells were cultured for 4 hours and then the fluorescence intensity at […] (excitation wavelength/emission wavelength) was read. Compounds of different concentrations were added to the remaining wells, and a 100% control group was set. After 48 hours of cultivation, 0.125 mg/mL Cell Titer-Blue dye was added and the fluorescence intensity at […] was read after 4 hours. The fluorescence intensity of the dosing group was represented by Ti, the fluorescence intensity of the 100% control group was represented by C, and the fluorescence intensity before dosing was represented by Tz.
(§2) If Ti≥Tz, the formula [(Ti−Tz)/(C−Tz)]×100 was used.
(§3) If Ti<Tz, the formula [(Ti−Tz)/Tz]×100 was used.
(§4) The GI50 and LC50 values of some compounds on leukemia cell strains MV4-11, HL60, PL21, KASUMI-1, MONO-MAC-1 and NB-4 are shown in FIG. 1, Table 3, FIG. 2, and Table 4.

[2] = system: acute myelogenous leukemia cells HL60; assay: GI50 and LC50 by NCI method, HL60; assay type: cell-based; details: for CC50 / GI50: Homo sapiens, HL-60, 48 hours, Cell Titer-Blue
Procedure: as §1, §2, §3, §4

[3] = target: HDAC1 (Homo sapiens (Human), UniProt Q13547); assay: Inhibitory activity on HDAC1 (fluorescence enzyme assay); details: read-out: IC50 HDAC1; mean of three independent experiments
HDAC1, sequence (Q13547 whole entry, species assumed): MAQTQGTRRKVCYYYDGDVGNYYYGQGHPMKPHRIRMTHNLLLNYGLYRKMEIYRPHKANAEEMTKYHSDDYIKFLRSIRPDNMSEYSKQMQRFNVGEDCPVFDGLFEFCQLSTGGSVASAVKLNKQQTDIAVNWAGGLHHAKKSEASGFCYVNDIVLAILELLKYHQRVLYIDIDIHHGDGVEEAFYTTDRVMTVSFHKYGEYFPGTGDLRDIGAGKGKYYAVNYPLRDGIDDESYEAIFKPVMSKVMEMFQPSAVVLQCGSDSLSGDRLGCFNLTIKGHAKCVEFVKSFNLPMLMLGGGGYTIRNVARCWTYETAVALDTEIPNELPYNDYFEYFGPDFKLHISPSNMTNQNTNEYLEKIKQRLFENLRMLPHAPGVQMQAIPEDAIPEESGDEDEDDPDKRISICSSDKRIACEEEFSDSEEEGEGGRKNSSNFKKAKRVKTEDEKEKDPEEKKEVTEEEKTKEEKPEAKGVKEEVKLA

[4] = target: HDAC2 (Homo sapiens (Human), UniProt Q92769); assay: Inhibitory activity on HDAC2 (fluorescence enzyme assay); details: read-out: IC50 HDAC2; mean of three independent experiments
HDAC2, sequence (Q92769 whole entry, species assumed): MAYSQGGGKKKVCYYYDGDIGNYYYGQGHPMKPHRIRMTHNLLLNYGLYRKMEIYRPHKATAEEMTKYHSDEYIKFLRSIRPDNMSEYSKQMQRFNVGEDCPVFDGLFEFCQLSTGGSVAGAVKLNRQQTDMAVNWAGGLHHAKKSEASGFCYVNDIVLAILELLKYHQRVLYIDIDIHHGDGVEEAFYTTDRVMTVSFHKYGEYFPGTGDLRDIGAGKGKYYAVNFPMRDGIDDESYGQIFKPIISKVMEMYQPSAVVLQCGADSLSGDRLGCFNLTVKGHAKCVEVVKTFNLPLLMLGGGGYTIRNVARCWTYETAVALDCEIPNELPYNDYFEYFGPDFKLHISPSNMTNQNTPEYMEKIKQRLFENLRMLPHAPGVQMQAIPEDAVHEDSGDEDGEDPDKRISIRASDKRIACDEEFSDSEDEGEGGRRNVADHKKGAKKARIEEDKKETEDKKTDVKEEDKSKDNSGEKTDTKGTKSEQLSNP

[5] = target: HDAC3 (Homo sapiens (Human), UniProt O15379); assay: Inhibitory activity on HDAC3 (fluorescence enzyme assay); details: read-out: IC50 HDAC3; mean of three independent experiments
HDAC3, sequence (O15379 whole entry, species assumed): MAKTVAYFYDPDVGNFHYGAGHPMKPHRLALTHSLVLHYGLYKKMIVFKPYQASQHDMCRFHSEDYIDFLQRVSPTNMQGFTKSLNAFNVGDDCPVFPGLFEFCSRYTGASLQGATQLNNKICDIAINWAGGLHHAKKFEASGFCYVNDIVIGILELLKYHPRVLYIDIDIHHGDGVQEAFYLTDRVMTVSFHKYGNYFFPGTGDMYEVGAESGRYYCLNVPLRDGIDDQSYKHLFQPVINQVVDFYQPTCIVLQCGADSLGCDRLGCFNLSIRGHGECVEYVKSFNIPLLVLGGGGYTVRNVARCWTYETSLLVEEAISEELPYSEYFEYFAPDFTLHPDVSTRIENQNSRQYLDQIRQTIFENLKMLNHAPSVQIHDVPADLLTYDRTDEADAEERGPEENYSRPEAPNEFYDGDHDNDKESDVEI
HDAC3, sequence (Q9Y618 395-489 partner, species assumed): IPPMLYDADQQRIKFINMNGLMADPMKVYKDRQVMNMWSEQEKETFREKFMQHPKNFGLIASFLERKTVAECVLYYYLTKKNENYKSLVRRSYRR

[6] = system: MV4-11 tumor; assay: In vivo anti-leukemia activity, MV4-11 tumor bearing model; details: MV4-11 tumor bearing nude mice; 4 mg/kg/d, day 23; panobinostat intraperitoneal
[7] = system: leukemia cell line KASUMI-1; assay: GI50 and LC50 by NCI method, KASUMI-1; assay type: cell-based; details: Homo sapiens, 48 hours, Cell Titer-Blue
Procedure: as §1, §2, §3, §4

[8] = system: leukemia cell line PL21; assay: GI50 and LC50 by NCI method, PL21; assay type: cell-based; details: PL-21; 48 hours, Cell Titer-Blue
Procedure: as §1, §2, §3, §4

[9] = Pharmacokinetic properties in mice; assay type: in vivo; details: for F: po 20 mg/kg vs iv 5 mg/kg
[10] = system: leukemia cell line MONO-MAC-1; assay: GI50 and LC50 by NCI method, MONO-MAC-1; assay type: cell-based; details: 48 hours, Cell Titer-Blue
Procedure: as §1, §2, §3, §4

[11] = system: leukemia cell line NB-4; assay: GI50 and LC50 by NCI method, NB-4; assay type: cell-based; details: 48 hours, Cell Titer-Blue; for GI50: read-out: NB4 GI50
Procedure: as §1, §2, §3, §4

[12] = target: NAMPT (Homo sapiens (Human), UniProt P43490); assay: Inhibitory activity on NAMPT; assay type: biochemical; details: for IC50: mean of three independent experiments
NAMPT, sequence (P43490 whole entry, species assumed): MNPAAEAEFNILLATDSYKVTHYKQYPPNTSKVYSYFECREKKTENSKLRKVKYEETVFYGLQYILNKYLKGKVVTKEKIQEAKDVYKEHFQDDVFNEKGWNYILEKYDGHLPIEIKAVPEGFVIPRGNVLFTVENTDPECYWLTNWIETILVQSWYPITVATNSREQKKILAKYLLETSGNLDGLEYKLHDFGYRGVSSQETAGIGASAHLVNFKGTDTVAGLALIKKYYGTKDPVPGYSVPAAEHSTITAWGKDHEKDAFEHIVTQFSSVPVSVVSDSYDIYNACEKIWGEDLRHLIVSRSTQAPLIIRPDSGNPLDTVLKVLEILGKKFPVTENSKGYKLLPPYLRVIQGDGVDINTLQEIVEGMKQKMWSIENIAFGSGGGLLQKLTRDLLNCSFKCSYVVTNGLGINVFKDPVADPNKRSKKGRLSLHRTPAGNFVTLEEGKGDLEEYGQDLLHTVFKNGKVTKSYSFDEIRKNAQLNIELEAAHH

[13] = mouse, plasma, po 20 mg/kg single dose

SMILES	IC50 [4]	IC50 [5]	GI50 [1]	LC50 (median lethal concentration) [1]	CC50 [2]	GI50 [2]	IC50 [3]	further results
CCCNNC(=O)c1ccc(CNC(=O)c2cc3cnccc3s2)cc1 [LEE19, N-(4-(2-propylhydrazin-1-carbonyl)benzyl)thiopheno[3,2-c]pyridin-2-carboxamide]	0.06 µM	0.0012 µM	0.054 µM	0.0985 µM	> 10 µM	0.0773 µM	0.0101 µM	
CCCNNC(=O)c1ccc(CNC(=O)c2cc3ccccc3o2)cc1 [LEE16, N-(4-(2-propylhydrazino-1-carbonyl)benzyl)benzofuran-2-carboxyamide]	0.0185 µM	0.000435 µM	0.03 µM	0.0578 µM	> 10 µM	0.0752 µM	0.00301 µM	Relative tumor proliferation rate (T/C %) [6]: 25.4%; Tumor inhibitory rate (TGI %) [6]: 78.4%; GI50 [7]: 0.0153 µM; LC50 [7]: 5.36 µM; GI50 [8]: 0.0343 µM; LC50 (median lethal concentration) [8]: > 10 µM; AUC(0-t) [9, 13]: 129000 ng·h/mL; Tmax [9, 13]: 30 min; Cmax ([9]; mouse, plasma, po 20 mg/kg single dose, read-out: Cmax): 34400 ng/mL; half-life ([9]; mouse, plasma, po 20 mg/kg single dose, read-out: t½ (converted)): 362 min; F [9]: 111%; CC50 [10]: > 10 µM; GI50 [10]: 0.0253 µM; GI50 [11]: 0.0423 µM; LC50 (median lethal concentration) ([11]; read-out: NB4 LC50): > 10 µM
COC(=O)c1ccc(CNC(=O)/C=C/c2cccnc2)cc1 [LEE43, methyl (E)-4-((3-(pyridine-3-yl)acrylamido)methyl) benzoate]								inhibitory activity against NAMPT (in words) [12]: micromolar level; IC50 [12]: 4.67 µM
CCCNNC(=O)c1ccc(CNC(=O)/C=C/c2ccccc2)cc1 [Comparative example 1 LP411/3b, reference compound]	0.0955 µM		0.066 µM		> 10 µM	0.121 µM	0.0118 µM	GI50 [7]: 0.0178 µM; GI50 [8]: 0.523 µM; IC50 [12]: > 20 µM; CC50 [10]: > 10 µM; GI50 [10]: 0.0163 µM; GI50 [11]: 0.0195 µM
CCCNNC(=O)CCCCCCNC(=O)c1cc2cnccc2[nH]1 [LEE7, N-(7-oxo-7-(2-propylhydrazino)heptyl)-3H-pyrrolo[3,2-c]pyridin-2-carboxamide]			0.0647 µM	0.164 µM	0.724 µM	0.158 µM		LC50 values in p53-null cell strain HL60 (in words) [2]: nanomolar level
Nc1ccccc1NC(=O)CCCCCCCNC(=O)/C=C/c1cccnc1 [LEE8, (E)-N-(2-aminophenyl)-8-(3-(pyridin-3-yl)acrylamido) octanamide]	0.321 µM	0.0264 µM	0.0312 µM	0.456 µM			0.147 µM	
CCCNNC(=O)c1ccc(CNC(=O)/C=C/c2ccccn2)cc1 [LEE13, (E)-N-(4-(2-propylhydrazino-1-carbonyl)benzyl)-3-(pyridin-2-yl) acrylamide]	0.0492 µM	0.00182 µM	0.015 µM	0.125 µM	> 10 µM	0.129 µM	0.0132 µM	
CCCNNC(=O)c1ccc(NC(=O)CCCCCCNC(=O)/C=C/c2cccnc2)cc1 [LEE40, (E)-N-(4-(2-propylhydrazino-1-carbonyl)phenyl)-7-(3-(pyridine-3-yl)acrylamido) heptamide]	0.123 µM	0.0124 µM	0.0157 µM					
CCCNNC(=O)c1ccc(CNC(=O)c2cc3cnccc3o2)cc1 [LEE20, N-(4-(2-propylhydrazino-1-carbonyl)benzyl)furan[3,2-c]pyridine-2-carboxyamide]	0.0384 µM	0.00052 µM	0.0504 µM	0.109 µM	> 10 µM		0.0103 µM	
CCCNNC(=O)c1ccc(CNC(=O)/C=C/c2ccncc2)cc1 [LEE14, (E)-N-(4-(2-propylhydrazino-1-carbonyl)benzyl)-3-(pyridin-4-yl)acrylamide]	0.0885 µM	0.00274 µM	0.0143 µM	0.0836 µM	6.06 µM	0.0631 µM	0.0127 µM	LC50 values in p53-null cell strain HL60 (in words) [2]: nanomolar level
CCCNNC(=O)/C=C/c1ccc(CNCCc2c(C)[nH]c3ccccc23)cc1 [Comparative example 2 LP97/13a, reference compound]								IC50 [12]: > 20 µM; AUC(0-t) [9, 13]: 242 ng·h/mL; Tmax [9, 13]: 30 min; Cmax ([9]; po 20 mg/kg single dose): 45.1 ng/mL; F [9]: 19.8%
COC(=O)c1ccc(CNC(=O)c2cc3cnccc3[nH]2)cc1 [LEE44, methyl 4-((1H-pyrrolo[3,2-c]pyridine-2-carbonylamide)methyl) benzoate]								inhibitory activity against NAMPT (in words) [12]: micromolar level; IC50 [12]: 6.71 µM
CCCNNC(=O)c1ccc(CNC(=O)c2cc3ccncc3[nH]2)cc1 [LEE21, N-(4-(2-propylhydrazino-1-carbonyl)benzyl)-1H-pyrrolo[2,3-c]pyridine-2-carboxamide]	0.0515 µM	0.00242 µM	0.0254 µM	0.058 µM	> 10 µM	0.0815 µM	0.00817 µM	
O=C(/C=C/c1cccnc1)NCCCCC1CCN(C(=O)c2ccccc2)CC1 [FK866, reference compound]			0.00795 µM		> 10 µM	0.0121 µM		

Now from value to molecule, other results behind:

IC50 [4]	IC50 [5]	SMILES	GI50 [1]	LC50 (median lethal concentration) [1]	CC50 [2]	GI50 [2]	IC50 [3]	further results
0.339 µM		CCCNNC(=O)CCCCCCNC(=O)/C=C/c1cccnc1 [LEE3, (E)-N-(7-oxo-7-(2-propylhydrazino)heptyl)-3-(pyridin-3-yl) acrylamide]						
13.6 µM	1.56 µM	CCCNNC(=O)CCNC(=O)/C=C/c1cccnc1 [LEE1, (E)-N-(3-oxo-3-(2-propylhydrazino)propyl)-3-(pyridin-3-yl) acrylamide]					> 10 µM	
0.398 µM	0.11 µM	CCCNNC(=O)CCCCCCNC(=O)NCc1cccnc1 [LEE5, 1-(7-oxo-7-(2-propylhydrazino)heptyl)-3-(pyridin-3-ylmethyl) urea]					0.444 µM	
0.0787 µM	0.00108 µM	CCCNNC(=O)c1ccc(NC(=O)CCCCCCCn2cc(-c3cccnc3)nn2)cc1 [LEE41, N-(4-(2-propylhydrazino-1-carbonyl)phenyl)-8-(4-(pyridin-3-yl)-1H-1,2,3-triazole-1-yl) octanamide]					0.018 µM	
2 µM	0.112 µM	CCCNNC(=O)CCCCNC(=O)/C=C/c1cccnc1 [LEE2, (E)-N-(5-oxo-5-(2-propylhydrazino)pentyl)-3-(pyridin-3-yl) acrylamide]					0.689 µM	
0.188 µM	0.00878 µM	Nc1ccccc1NC(=O)CCCCCCCn1cc(-c2cccnc2)nn1 [LEE11, N-(2-aminophenyl)-8-(4-(pyridin-3-yl)-1H-1,2,3-triazole-1-yl) octanamide]						
1.18 µM	0.0843 µM	CCCNNC(=O)c1ccc(CNC(=O)CCCCCCNC(=O)/C=C/c2cccnc2)cc1 [LEE39, (E)-N-(4-(2-propylhydrazino-1-carbonyl)benzyl)-7-(3-(pyridine-3-yl)acrylamido) heptanamide]					0.501 µM	
0.0841 µM	0.00198 µM	CCCNNC(=O)c1ccc(CNC(=O)CCCCCCCNC(=O)/C=C/c2cccnc2)cc1 [LEE37, (E)-N-(4-(2-propylhydrazino-1-carbonyl)benzyl)-8-(3-(pyridine-3-yl)acrylamido) octanamide]					0.0178 µM	
0.539 µM	0.0974 µM	CCCNNC(=O)c1ccc(NC(=O)CCCCCCCNC(=O)/C=C/c2cccnc2)cc1 [LEE38, (E)-N-(4-(2-propylhydrazino-1-carbonyl)phenyl)-8-(3-(pyridine-3-yl)acrylamido) amide]					0.62 µM	
0.506 µM	0.0767 µM	CCCNNC(=O)CCCCCCCNC(=O)/C=C/c1cccnc1 [LEE4, (E)-N-(8-oxo-8-(2-propylhydrazino)octyl)-3-(pyridin-3-yl) acrylamide]					0.241 µM	

Reference: patent US20240327418A1, “MULTI-TARGET INHIBITOR TARGETING HDAC AND NAD SYNTHESIS AND USE OF MULTI-TARGET INHIBITOR” (OCEAN UNIVERSITY OF CHINA, priority 2021, published 2024)
